# Peptide text beside a SMILES is read from it.
# Key:
# [1] = Oxygen radical antioxidant capacity (ORAC) assay; assay type: physicochemical; conditions: 100 μM aqueous solutions
# Protocol: (2) ORAC assay: (1) On a 96-well black plate, 25 μL each of PBS, Trolox standard solutions (12.5, 25, 50, and 100 μM) and aqueous solutions of five derivative peptides (100 μM) was added. The 96-well plate was placed and shaken in a microplate reader preheated for 30 min for 5 s, and incubated at 37° C. for 10 min. To each well, 150 μL each of FL working solution was added using a multi-channel pipette, and the plate was shaken for 5 s and incubated at 37° C. for 20 min. To each well, 25 μL each of AAPH was quickly added using the multi-channel pipette, and the plate was shaken for 5 s, followed by reading. The fluorescence intensity was continuously measured at an excitation wavelength of (485±20) nm and an emission wavelength of (530±20) nm. The whole system was held at 37° C., and the fluorescence intensity was measured every 2 min. Before each measurement, the well plate was shaken at a medium speed for 10 s, and the oscillation amplitude was 4 mm. The measurement was performed until the fluorescence intensity reached 5% of the initial fluorescence intensity (60 cycles were set in this assay). The relative fluorescence intensity is calculated by the area under the fluorescence decay curve (AUC) as follows: AUC=0.5×[2×(f0+f1 . . . +fn-1+fn)−f0−fn]×Δt
# (1) In the formula, fn is the relative fluorescence intensity at the n-th measurement point; and Δt is the interval between adjacent time points, namely 2 min.
# (2) The measurement results are expressed as ORAC values. The ORAC values of unknown samples are expressed in μmol TE/g. ORAC value=[(AUCSample−AUCBlank)/(AUCTrolox−AUCBlank)]×CTrolox/CSample.
# Herein, AUCSample is the result of each of the aqueous solutions of five derivative peptides; AUCBlank is the result after adding 25 μL of PBS; AUCTrolox is the result after adding Trolox standard solution (100 μM); CTrolox is the molar concentration of Trolox, namely, 100 μM;
# CSample is the molar concentration of each derivative peptide, calculated from the Trolox standard curve, where the Trolox standard curve is y=0.0756x+41.989, R^2=0.9931, the abscissa is the molar concentration of Trolox (12.5, 25, 50, or 100 μM), and the ordinate is AUCTrolox.
# [2] = ABTS free radical scavenging assay; assay type: physicochemical; conditions: concentration of 100 μM
# Protocol: (1) ABTS free radical scavenging assay: Equal volumes of a 7 mmol/L ABTS aqueous solution and a 2.49 mmol/L potassium persulfate aqueous solution were mixed and left to stand in the dark for 12 h to obtain an ABTS free radical stock solution, which was stored at 4° C. When in use, the stock solution was diluted with 5 mmol/L PBS until the absorbance of the solution was 0.700±0.002 at 734 nm, and an ABTS free radical working solution was prepared. Separately, 10 μL of each of the aqueous solutions of derivative peptides with a concentration of 100 μM was added to a 96-well plate, while glutathione (GSH) of the same concentration was used as a control; these solutions reacted with 190 μL of ABTS free radical working solution accurately for 6 min, and absorbance values (A1) were measured at a wavelength of 734 nm using a microplate reader. The calculation formula for scavenging rate is as follows: […]
# where A0 is the absorbance value that replaces the derivative peptide solution with distilled water;
# A1 is the absorbance value of the solution adding a derivative peptide or GSH; and
# A2 is the absorbance value of the solution using 5 mmol/L PBS instead of the ABTS free radical working solution.
# [3] = Acid-base stability testing (RP-HPLC peak area); assay type: physicochemical; conditions: 100 μM, pH 2, 4, 6, and 8, 37° C. for 2 h
# Protocol: Acid-base Stability Testing (see FIG. 4B): • Step 1, the solid powder of derivative peptide WYSGK (SEQ ID NO: 4) was dissolved in distilled water to prepare a 100 μM solution, which was used as a blank group and stored at 4° C. for later use; • Step 2, the solid powder of derivative peptide WYSGK (SEQ ID NO: 4) was diluted with aqueous solutions with pH 2, 4, 6, and 8 to a concentration of 100 μmol/L, respectively, and the resulting solutions were incubated in a water bath at 37° C. for 2 h; • Step 3, the blank group and WYSGK (SEQ ID NO: 4) sample solutions at different pH were filtered through a 0.22 μm filter membrane; • Step 4, RP-HPLC was performed under the following conditions: detection wavelength: 220 nm; column temperature: 25° C.; mobile phase A: 100% acetonitrile+0.1% TFA; mobile phase B: 100% acetonitrile+0.1% TFA. Elution conditions were programmed as follows: 0-25 min, 10%-35% B (gradient elution); flow rate 1.0 mL/min; and • Step 5, the peak area in the liquid chromatogram was calculated to determine whether the derivative peptide WYSGK (SEQ ID NO: 4) was degraded at different pH (refer to Liu Xintong's method, Sci. Technol. Food Ind., Vol. 41, No. 19, 2020).
# [4] = Thermal stability testing (RP-HPLC peak area); assay type: physicochemical; conditions: 100 μM, pH 7.0, 20-100° C. water bath for 2 h
# Protocol: Thermal Stability Testing (see FIG. 4A): • Step 1, the solid powder of derivative peptide WYSGK (SEQ ID NO:4) was dissolved in distilled water to prepare a 100 μM solution, the pH value was adjusted to 7.0, and the resulting solution was stored at 4° C. for later use; • Step 2, the derivative peptide WYSGK (SEQ ID NO: 4) solution in step 1 was divided into five tubes (1 mL/tube), and each tube was placed in a water bath at 20, 40, 60, 80, and 100° C. for 2 h; • Step 3, the blank group (the derivative peptide WYSGK (SEQ ID NO: 4) solution in step 1 without water bath treatment) and the derivative peptide WYSGK (SEQ ID NO:4) solution at each temperature were filtered through a 0.22 μm filter membrane; • Step 4, RP-HPLC was performed under the following conditions: detection wavelength: 220 nm; column temperature: 25° C.; mobile phase A: acetonitrile+0.1% (v/v) TFA; mobile phase B: acetonitrile+0.1% (v/v) TFA. Elution conditions were programmed as follows: 0-25 min, 10%-35% B (the value could be input in the liquid phase equipment); flow rate 1.0 mL/min; and • Step 5, the peak area in the liquid chromatogram was calculated to determine whether the derivative peptide WYSGK (SEQ ID NO:4) was degraded at different temperatures (refer to Liu Xintong's method, Sci. Technol. Food Ind., Vol. 41, No. 19, 2020).
# [5] = Simulated gastrointestinal digestion stability testing; assay type: in vitro ADME; conditions: pepsin up to 2 h then trypsin up to 2 h, 37° C.
# Text: […]
# [6] = tested on: scopolamine-induced memory impairment model mice; assay: Morris water maze (place navigation and probe trial); assay type: in vivo, Male C57BL/6N mice
# Protocol: In vivo studies were performed in accordance with the Guide for the Care and Use of Laboratory Animals published by the […]. Male C57BL/6N mice weighing 25-30 g were purchased from Liaoning Changsheng Biotechnology Co., Ltd. (Benxi, China). Mice were housed at a stable temperature (22±1° C.) under a 12 h/12 h light/dark cycle. The mice were given access to standard diet and water ad libitum. […]
# A circular pool for Morris water maze (1,200 mm in diameter) was filled with warm water at 20±2° C., while a platform (65 mm diameter) was hidden in the Southwest (SW) quadrant 1 cm below the water surface. A mouse was gently placed in the Northeast (NE) quadrant facing the pool wall, the swimming trajectory of the mouse was recorded by the image acquisition system, and the time was measured for 120 s. The time it took to find the platform in the SW quadrant within 120 s was recorded as the latency, while the mouse that reached the platform was allowed to sit on the platform for 10 s and then returned to the holding cage. […] Subsequently, the time from the mice being placed in the water to finding the platform was analyzed and calculated according to the data acquisition system (see FIG. 2A). […]
# After the place navigation was completed, the platform hidden in the water was taken out. A mouse was gently placed in the Northeast (NE) quadrant facing the pool wall, the swimming trajectory of the mouse was recorded by the image acquisition system, and the time was measured for 90 s. According to the data acquisition system, the time spent in the target quadrant (see FIG. 2B) and the frequency of original platform crossing (see FIG. 2C) within 90 s were analyzed and calculated on the mouse. […]
Molecule,ORAC value [1],ABTS free radical scavenging rate [2] [%],also measured
"N[C@@H](CCC(=O)N[C@@H](CS)C(=O)NCC(=O)O)C(=O)O [GSH, reduced glutathione, reference compound]",995.58 μmol TE/g,31.39,
"NCCCC[C@H](NC(=O)CNC(=O)[C@H](CO)NC(=O)[C@H](Cc1ccc(O)cc1)NC(=O)[C@@H](N)Cc1c[nH]c2ccccc12)C(=O)O [WYSGK, Trp-Tyr-Ser-Gly-Lys] (H-WYSGK-OH; N-terminus and C-terminus assumed)",,,degradation at different pH (acid-base stability) [3]: hardly degraded; degradation at different temperatures (thermal stability) [4]: hardly degraded; retention rate of peptide content [5]: at least 93.45%
Trp-Tyr-Glu-Gly-Lys (WYEGK; derivative peptide),"5,422.29 μmol TE/g",54.48,
Trp-Tyr-Lys-Gly-Lys (WYKGK; derivative peptide),"3,681.50 μmol TE/g",40.31,
Trp-Tyr-Phe-Gly-Lys (WYFGK; derivative peptide),"3,762.05 μmol TE/g",36.56,
"WYPGK: pine nut-derived antioxidant peptide, template for the derivative peptides (pine nut antioxidant peptide)",,,"escape latency compared with the model group ([6]; place navigation, 5-day training, FIG. 2A): shorter escape latency; time spent in target quadrant compared with the model group ([6]; probe trial, within 90 s, FIG. 2B): significant decreases; frequency of original platform crossing compared with the model group ([6]; probe trial, within 90 s, FIG. 2C): significant decreases"

# — US11780880B2, “High-activity memory-improving derivative peptide and use thereof” (Jilin Agricultural University, priority 2021, dated 2023)
